Where “and” joins values, the source holds several entries; their conditions need not be identical. Identical values can stand only once.
Tests used:
[1] = test system: normal C57BL/6J mice; assay: Oral sucrose test, postprandial blood glucose; assay type: in vivo; conditions: for Blood glucose levels: 30 min after sucrose 4 g/kg, n = 8, in mmol/L (unit assumed); for Rate of blood glucose reduction: vs model group, 30 min after sucrose
Description: Male C57BL/6J mice of SPF grade, aged 6–8 weeks and weighing 18–22 g, were obtained from the Experimental Animal Science Department of Peking University. The mice were housed in a controlled environment with a 12:12 light/dark cycle and a constant temperature. They were provided with standard pellet feed and given free access to drinking water. To ensure acclimatization, the mice were allowed to adjust to the diet and housing conditions for one week prior to the experiment. All animal experiments were performed in compliance with the relevant laws and institutional guidelines for the care and use of laboratory animals in China. The experiments were approved by the Laboratory Animal Management and Ethics Committee of Peking University (LA2021443). Additionally, the certification number for the laboratory animal personnel is 1120111300011.
The 16 flavonoids were subsequently evaluated for their potential antihyperglycemic effects by using the oral sucrose test, which is commonly used to evaluate intestinal α-glucosidase inhibition in vivo [62]. Normal C57BL/6J mice were randomly divided into model groups and the 16 flavonoid compound groups (n = 8 per group), respectively. The flavonoids at different concentrations were suspended in 0.5% sodium carboxymethyl cellulose (CMC-Na). […] Fifteen minutes after drug administration, the mice were given a sucrose solution (4 g/kg). Blood samples were collected from the tail vein at 30 min after sucrose loading, and blood glucose levels were measured using an Accu-Chek Performa glucometer (Roche Diagnostics, SN: 79508621393, Shanghai, China). The rate of blood glucose reduction was calculated using the following Formula (4):(4) The rate of blood glucose reduction%=the model blood glucose-the sample blood glucose/the model blood glucose×100%

[2] = target: T1, α-glucosidase (Saccharomyces cerevisiae, UniProt P53341); assay: Mixture effects of flavonoid combinations on α-glucosidase; assay type: biochemical
T1 construct: purchased Shanghai Yuanye Biotechnology Co., Shanghai, China Lot No. M23HS178879 (catalogue number not given)
T1 sequence (P53341 whole entry): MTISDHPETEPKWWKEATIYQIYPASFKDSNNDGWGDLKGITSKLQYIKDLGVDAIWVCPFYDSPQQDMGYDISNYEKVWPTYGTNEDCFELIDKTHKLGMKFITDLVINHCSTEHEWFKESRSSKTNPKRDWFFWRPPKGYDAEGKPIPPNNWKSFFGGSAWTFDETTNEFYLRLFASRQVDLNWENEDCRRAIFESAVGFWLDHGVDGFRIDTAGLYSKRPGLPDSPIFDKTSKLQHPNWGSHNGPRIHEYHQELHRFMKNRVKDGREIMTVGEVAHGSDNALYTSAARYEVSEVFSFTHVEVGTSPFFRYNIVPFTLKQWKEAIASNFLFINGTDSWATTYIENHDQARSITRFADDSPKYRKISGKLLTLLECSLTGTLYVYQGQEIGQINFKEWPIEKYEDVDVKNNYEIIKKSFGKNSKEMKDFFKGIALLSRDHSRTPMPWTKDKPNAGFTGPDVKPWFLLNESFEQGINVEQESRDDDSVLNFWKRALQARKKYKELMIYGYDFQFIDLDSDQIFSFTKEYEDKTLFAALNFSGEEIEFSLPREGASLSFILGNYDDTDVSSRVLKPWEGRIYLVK
Description: (§1) The α-glucosidase inhibitory effects of flavonoids were evaluated as in a previous report with slight modifications (including changes in the concentrations of the enzyme, substrate, and Na2CO3). Briefly, 50 μL of phosphate-buffered saline (PBS, 0.1 M, pH 6.8), the test compound, and α-glucosidase (0.2 U/mL) were preincubated in a 96-well plate at 37 °C for 10 min. The reaction was then initiated by adding 50 μL of 5 mM pNPG as the substrate. Subsequently, the 96-well plate was incubated for an additional 30 min at 37 °C, then 50 μL of 0.2 M Na2CO3 was added to terminate the reaction. Absorbance was measured at under 405 nm.
The inhibitory activity of the composition was evaluated using the same method described in Section 3.2. […] The combination index (CI, Formula (3)) was subsequently used to assess the interactions between the compounds [60].(2) Y=Bottom+Top−Bottom/1+10^^((LogIC50−X)×HillSlope)
In Formula (3), (D)j represents the concentration of component j in the mixture needed to achieve an effect of x, while (Dx)j denotes the concentration of component j required to produce the same effect when acting alone. Here, x refers to the inhibition rate produced by the composition, and n indicates the number of individual compounds in the composition.

[3] = target: T1, α-glucosidase; assay: CD spectroscopy, secondary structure of α-glucosidase (BeStSel); conditions: for β-turn: free enzyme 11.7; for β-sheet: free enzyme 28.8; for random coil: free enzyme 45.2; for α-helix: free enzyme 14.4
Description: CD spectra in the far-UV region (190–250 nm) were scanned by using a CD spectrometer (JASCO-1.5 Tokyo, Japan). […] The slit width was set to 1 nm, and the baseline was calibrated with PBS (phosphate buffered saline). CD spectra were averaged over three scans under a constant nitrogen flow, with the buffer signal subtracted. The results were analyzed using the BeStSel database (https://bestsel.elte.hu/index.php, accessed on 16 May 2025).

[4] = target: T1, α-glucosidase; assay: Inhibitory kinetic analysis (Lineweaver–Burk plot); assay type: biochemical; conditions: Lineweaver–Burk plots, pNPG 0.31–20 mM
Description: The type of inhibition was determined by using the kinetics curve and the Lineweaver–Burk plot. […] These compounds were incubated with α-glucosidase at 37 °C for 30 min. After incubation, various concentrations of pNPG (0.31–20 mM) were added, and absorbance was measured at 405 nm. The Lineweaver–Burk plot was obtained by plotting 1/[S] on the x-axis and 1/v on the y-axis, where [S] represents substrate concentration and v represents the reaction velocity.

[5] = target: T2, Saccharomyces cerevisiae α-glucosidase (Saccharomyces cerevisiae, UniProt P53341); assay: biochemical; conditions: IC50, α-glucosidase 0.2 U/mL, 5 mM pNPG, PBS pH 6.8, 37 °C
T2 construct: purchased Shanghai Yuanye Biotechnology Co., Shanghai, China Lot No. M23HS178879 (catalogue number not given)
T2 sequence (P53341 whole entry): as above
Description: as §1

[6] = calculated from the dose–response curve
[7] = each compound alone at its IC15 concentration, Com1 = mixture of the four at IC15 (117 μM in total)
[8] = molar ratio 10:1, α-glucosidase 4 μM
[9] = molar ratio 40:1, α-glucosidase 4 μM
[10] = molar ratio compound:α-glucosidase 10:1, α-glucosidase 4 μM
[11] = 20 mg/kg oral (acarbose, positive control of each experiment)

Compound | Blood glucose levels ([1]; 10 mg/kg oral) | Rate of blood glucose reduction ([1]; 10 mg/kg oral) [%] | Blood glucose levels ([1]; 50 mg/kg oral) | Rate of blood glucose reduction ([1]; 50 mg/kg oral) [%] | Blood glucose levels ([1]; 100 mg/kg oral) | Rate of blood glucose reduction ([1]; 100 mg/kg oral) [%] | IC05 [2, 6] [µM] | β-turn [3, 8] [%] | β-sheet [3, 8] [%] | random coil [3, 8] [%] | β-turn [3, 9] [%] | α-helix [3, 9] [%] | β-sheet [3, 9] [%] | random coil [3, 9] [%] | α-helix [3, 10] [%] | type of inhibition on α-glucosidase [4] | Blood glucose levels ([1]; 25 mg/kg oral) | Rate of blood glucose reduction ([1]; 25 mg/kg oral) [%] | IC50 [5] [µM] | also measured
O=c1c(O)c(-c2ccc(O)c(O)c2)oc2cc(O)cc(O)c12 [C1, quercetin] | 14.46 ± 1.06 | 0.77 | 13.41 ± 0.41 | 7.98 | 12.26 ± 1.65 | 15.87 | 0.82 | 13.1 | 23.6 | 49.1 | 12.5 | 11.1 | 27.9 | 48.5 | 14.0 | mixed-type inhibitors |  |  |  | inhibition rate against α-glucosidase ([2]; each compound alone at its IC05 concentration, Com2 = mixture of the seven at IC05 (381.58 μM in total)): 4.70 ± 1.66%; inhibition rate against α-glucosidase [2, 7]: 17.16 ± 0.75%
O=c1c(O[C@@H]2O[C@H](CO)[C@@H](O)[C@H](O)[C@H]2O)c(-c2ccc(O)c(O)c2)oc2cc(O)cc(O)c12 [C10, isoquercitrin] | 12.41 ± 2.07 | 7.66 | 10.91 ± 1.78 | 18.82 |  |  |  | 14.2 | 24.0 | 49.3 | 13.1 | 12.5 | 16.6 | 57.8 | 12.4 | competitive inhibitor | 12.21 ± 2.08 | 9.15 | 71.7 ± 7.62 | IC15 (concentration corresponding to a 15% inhibition rate) [2, 6]: 40 µM; inhibition rate against α-glucosidase [2, 7]: 14.93 ± 4.73%
O=c1c(O[C@@H]2O[C@H](CO)[C@@H](O)[C@H](O)[C@H]2O)c(-c2ccc(O)cc2)oc2cc(O)cc(O)c12 [C7, astragalin] |  |  |  |  |  |  |  |  |  |  |  |  |  |  |  |  |  |  |  | effect on postprandial blood glucose ([1]; 30 min after the sucrose load, compared to the model group, C7 at 10, 50 or 250 mg/kg): no glucose-lowering effect
C[C@@H]1O[C@@H](OC[C@H]2O[C@@H](Oc3c(-c4ccc(O)c(O)c4)oc4cc(O)cc(O)c4c3=O)[C@H](O)[C@@H](O)[C@@H]2O)[C@H](O)[C@H](O)[C@H]1O [C6, rutin] | 12.81 ± 1.23 | 11.49 | 11.83 ± 0.71 | 18.31 |  |  |  | 12.1 | 26.9 | 45.5 | 17.6 | 9.30 | 14.3 | 58.8 | 15.5 |  |  |  | 211 ± 11.2 | Blood glucose levels ([1]; 2 mg/kg oral): 14.68 ± 1.00; Rate of blood glucose reduction ([1]; 2 mg/kg oral): -1.38%
O=c1c(-c2ccc(O)cc2)coc2cc(O)cc(O)c12 [C8, genistein] |  |  | 13.26 ± 0.72 | 9.01 | 12.06 ± 0.82 | 17.24 |  |  |  |  |  |  |  |  |  |  | 13.91 ± 1.00 | 4.55 |  | 
O=C1C[C@@H](c2ccc(O)cc2)Oc2cc(O)cc(O)c21 [C5, naringenin] |  |  |  |  | 12.39 ± 1.03 | 19.76 | 26.47 | 12.8 | 20.6 | 53.3 | 13 | 15.3 | 25.3 | 46.5 | 13.2 | mixed-type inhibitors | 13.23 ± 0.63 | 14.33 |  | Blood glucose levels ([1]; 5 mg/kg oral): 14.56 ± 1.96; Rate of blood glucose reduction ([1]; 5 mg/kg oral): 5.67%
C[C@H]1O[C@H](O[C@H]2[C@H](O)[C@@H](O)[C@@H](O[C@H]3[C@H](O)[C@@H](O)C(O)O[C@@H]3CO)O[C@@H]2CO)[C@H](O)[C@@H](O)[C@@H]1N[C@H]1C=C(CO)[C@@H](O)[C@H](O)[C@H]1O (stereo partly drawn) [acarbose, reference compound] |  |  |  |  |  |  |  |  |  |  |  |  |  |  |  |  |  |  |  | Blood glucose levels [1, 11]: 7.39 ± 0.70 and 7.38 ± 0.95 and 7.90 ± 0.56 and 8.09 ± 0.60 and 7.16 ± 0.52 and 7.98 ± 0.58; Rate of blood glucose reduction [1, 11]: 49.31% and 47.09% and 48.83% and 44.13% and 46.72% and 50.02%
O=C1c2ccc(O)cc2OCC1c1ccc(O)cc1 (stereo not drawn) [C28, dihydrodaidzein] | 12.74 ± 0.75 | 12.61 | 11.39 ± 1.48 | 21.87 |  |  | 98.27 | 14.4 | 25.6 | 50.7 | 12.9 | 10.9 | 20.7 | 55.5 | 9.30 | mixed-type inhibitors |  |  | 412 ± 11.4 | Blood glucose levels ([1]; 2 mg/kg oral): 14.84 ± 0.62; Rate of blood glucose reduction ([1]; 2 mg/kg oral): -1.80%
O=c1c(O)c(-c2ccc(O)cc2)oc2cc(O)cc(O)c12 [C2, kaempferol] | 12.68 ± 1.47 | 9.06 | 12.79 ± 0.81 | 8.25 | 11.88 ± 1.62 | 14.80 |  | 12.5 | 25.3 | 48.2 | 13.3 | 9.70 | 23.9 | 53.1 | 14.1 | mixed-type inhibitors |  |  |  | 

Reference: article PMC12114633, “α-Glucosidase Inhibition Mechanism and Anti-Hyperglycemic Effects of Flavonoids from Astragali Radix and Their Mixture Effects” (Pharmaceuticals, 2025)
